Common to all, as to assay type: in vivo, rat
The test system of one assay is lung tissues. In words: LPS-induced ALI in rats: H&E histopathology and histological scoring of pulmonary inflammation. The note with it: for Proportion of airspace area: airspace area / total area of one view, 400×; for Incidence of congestion / Incidence of hemorrhage / Severity of neutrophil infiltration: lung H&E. How it is done: (§1) Thirty-five free pathogenic Sprague–Dawley male albino rats (100–120 g) were obtained from the Egyptian Drug Authority (EDA) animal house. Randomly, the animals were divided into seven groups, (each 5 rats) as follows: Group I: normal control group, Group II: positive control group on the 7th day only received LPS (Lipopolysaccharides) at a dose of 10 mg/kg bw. i.p. suspended in sterile saline solution 0.9% (Ijinu et al. [2022]), Group III dexamethasone positive control (5 mg/kg i.p.) (Murillo-Cuesta et al. [2023]) for 7 days followed by LPS single inflammatory dose model (10 mg/kg b. w i.p.). On the 7th day, 1 h after the last dexamethasone dose. […] All animals were anesthetized to obtain blood in heparinized capillary tubes for pro-inflammatory cytokines (TNF-α, IL-1, IL-6, and MPO) ELISA examination in addition to lung tissues for determination of antioxidant enzymes (SOD, Catalase, GSH and MDA), real-time PCR (p38.MAPK14 and CY450P2E1), western blot (NF-κB p65), histological lung tissue scoring and immunohistochemistry examination (TGF-β1).
Lung tissues were collected and fixed in 10% neutral buffered formaldehyde for 24 h to stabilize and fix tissue proteins. Dehydration, clearing, and paraffin infiltration and embedding were performed, and then wax blocks were sectioned by microtome into 5 µ sections and stained with Hematoxylin and Eosin Stain. Hematoxylin staining was performed according Ehrlich's Hematoxylin (Ehrlich [1886]) and eosin staining was done according to Avwioro ([2011]). Anti-Transforming Growth Factor-β (TGF-β) antibody immunohistochemistry stain (Arigo Biolaboratories, ARG 56429) was also performed, and Immuno-histochemical staining was performed according to Bajracharya et al. ([2017]). The same position of the lungs in five […] was observed through a microscope, and the histological lesion of the lung was evaluated through the incidence of congestion, inflammation, and hemorrhage, severity scoring of neutrophil infiltrates, and proportion of airspace areas. The level of severity was judged from – to +++, representing none to severe. The airspace proportion is the ratio of the airspace area and the total area of one view under 400 × magnifications (Wang et al. [2018]). According to Xue et al. ([2011]) & Ai-Li Huang et al. ([2014]): the semi-quantitative criterion for TGF-β1 staining intensity was estimated using a four-tiered scoring system: negative (−), no staining at all; weak (+), weak staining regardless of positive cell percentages or moderate staining of ≤ 30% of cells; moderate (++), moderate staining of > 30% of cells or strong staining of ≤ 50% of cells; strong (+++), strong staining of > 50% of cells. Low expression of TGF-β1 was defined as (-) or ( +), and High expression was defined as (++) or (+++).

In a further assay the test system is IL-1β. In words: LPS-induced ALI in rats: IL-1β ELISA. How it is done:
as §1
(§2) Rat TNF-α (Catalog No: MBS2507393 96 T/48 T/24 T), IL-6 (Catalog No: MBS355410), IL-1β (Catalog no. MBS825017), MPO (Catalog No. MBS2019590) ELISA kits were obtained from MyBiosource, San Diego, USA.

The subject of another assay is Catalase. The assay can be described thus: LPS-induced ALI in rats: pulmonary catalase. The settings on record: lung tissue. How it is done: as §1
In the next assay the test system is TNF-α. The settings on record: ELISA, rats. How it is done:
as §1, §2

A further assay deals with MPO. The note with it: ELISA, rats. The method, then:
as §1, §2

The test system of the next assay is SOD. In words: LPS-induced ALI in rats: pulmonary SOD. The settings on record: lung tissue. How it is done:
as §1

In a further assay the test system is CY450P2E1. The assay can be described thus: LPS-induced ALI in rats: real-time PCR of CY450P2E1 gene in lung. The note with it: lung tissue. The method, then: (§3) Thirty-five free pathogenic Sprague–Dawley male albino rats (100–120 g) were obtained from the Egyptian Drug Authority (EDA) animal house. Randomly, the animals were divided into seven groups, (each 5 rats) as follows: Group I: normal control group, Group II: positive control group on the 7th day only received LPS (Lipopolysaccharides) at a dose of 10 mg/kg bw. i.p. suspended in sterile saline solution 0.9% (Ijinu et al. [2022]), Group III dexamethasone positive control (5 mg/kg i.p.) (Murillo-Cuesta et al. [2023]) for 7 days followed by LPS single inflammatory dose model (10 mg/kg b. w i.p.). On the 7th day, 1 h after the last dexamethasone dose. […]
(§4) Primers were utilized in a 25- µl reaction containing 12.5 µl of the 2 × QuantiTect SYBR Green PCR Master Mix (StrateGene® MX3005P, Qiagen, Germany), 0.25 µl of Revert Aid reverse transcriptase (200 U/µL) (Thermo Fisher, Germany), 0.5 µl of each primer of 20 pmol concentration, 8.25 µl of water, and 3 µl of RNA template. […] Amplification curves and Ct values were determined by the Strata gene MX3005P software, version 3 (Agilent, California, USA). […]

In another assay the test system is MDA. In words: LPS-induced ALI in rats: pulmonary MDA. The note with it: lung tissue. The method, then: as §1
The subject of a further assay is TGF-β1. The note with it: rats. The method, then: as §3
Lung tissues were collected and fixed in 10% neutral buffered formaldehyde for 24 h to stabilize and fix tissue proteins. […] The same position of the lungs in five mice was observed through a microscope, and the histological lesion of the lung was evaluated through the incidence of congestion, inflammation, and hemorrhage, severity scoring of neutrophil infiltrates, and proportion of airspace areas. […]

A further assay relates to IL-6. The assay can be described thus: LPS-induced ALI in rats: IL-6 ELISA. How it is done: as §1, §2
The next assay relates to GSH. In words: LPS-induced ALI in rats: pulmonary GSH. The settings on record: lung tissue. The method, then: as §1
In the next assay the test system is NF-κB p65. The settings on record: western blot, lung, relative band intensity (ratio of AU to internal control), rats. How it is done:
as §3
Samples were separated on a polyacrylamide gel; the procedure was abbreviated as SDS-PAGE, or Sodium Dodecyl Sulfate Polyacrylamide Gel Electrophoresis, a standard technique for separating proteins according to their molecular weight. […] Imaging and data analysis quantitation: The chemiluminescent substrate (Clarity TM Western ECL substrate, Bio-Rad cat# 170-5060) was applied to the blot according to the manufacturer’s recommendation.

A further assay has as its system P38.MAPK14. The assay can be described thus: LPS-induced ALI in rats: real-time PCR of P38 MAPK gene in lung. The settings on record: lung tissue. How it is done:
as §3, §4

[1] abbreviates: dexamethasone 5 mg/kg i.p. 7 days + LPS 10 mg/kg i.p.

Read-outs that look alike come from different tables or passages of the source.

Take `C[C@@H]1C[C@H]2[C@@H]3CCC4=CC(=O)C=C[C@]4(C)[C@@]3(F)[C@@H](O)C[C@]2(C)[C@@]1(O)C(=O)CO` [Dexamethasone, dexamethasone]: in the assay on lung tissues (setting [1]), the “Proportion of airspace area” value is given as 4.89%; the “H&E histological examination of lung tissue (finding in words)” value is on record as “collapsed alveoli in some areas, while other areas showed emphysema”; the Incidence of congestion is 4/8; the Incidence of hemorrhage was 1/8. In addition, in the assay with lung tissues (setting [1]), the “Severity of neutrophil infiltration” value was “++”. Also, the IL-β1 with IL-1β (setting [1]) is recorded as 48.77 ± 1.995^***b. Also, the Catalase with Catalase (setting [1]) is on record as 0.098 ± 0.006^*b. The TNF-α with TNF-α (setting [1]) is reported as 91.27 ± 1.940^***b. The MPO in the assay with MPO (setting [1]) is listed as 45.50 ± 2.926^***b. Besides, the SOD in the assay with SOD (setting [1]) is given as 0.8047 ± 0.041^*b. In addition, the “CY450P2E1 Fold change” value in the assay on CY450P2E1 (setting [1]) is recorded as 5.345 ± 0.3346^***b Fold change. Also, in the assay on MDA (setting [1]), the MDA is 20.69 ± 2.49^***b. Besides, the “TGF-β1 immunohistochemical expression in lung” value in the assay on TGF-β1 (setting [1]) is reported as “+ +”. In addition, in the assay with IL-6 (setting [1]), the IL-6 is 58.87 ± 1.38^***b. Besides, the GSH with GSH (setting [1]) was 1.174 ± 0.1565^**b. Besides, in the assay with NF-κB p65 (setting [1]), the Nf-ĸB stood at 3.907 ± 0.048. The “P38 MAPK Fold change” value in the assay with P38.MAPK14 (setting [1]) was 3.585 ± 0.2314^***b Fold change.

In the case of Lipopolysaccharide [LPS], in the assay with lung tissues (LPS 10 mg/kg i.p. only), the “H&E histological examination of lung tissue (finding in words)” value is reported as “collapsed alveoli in some areas, while other areas showed emphysema”; the “Proportion of airspace area” value was 2.66%; the Incidence of congestion is 5/8; the Incidence of hemorrhage is on record as 2/8. Also, the “Severity of neutrophil infiltration” value in the assay with lung tissues (LPS 10 mg/kg i.p. only) is reported as “++++”. For the same molecule, the IL-β1 in the assay on IL-1β (LPS 10 mg/kg i.p. only) was 112.2 ± 3.143^***a. Besides, the Catalase in the assay with Catalase (LPS 10 mg/kg i.p. only) is given as 0.2153 ± 0.001^*a. The TNF-α with TNF-α (LPS 10 mg/kg i.p. only) is 157.0 ± 4.917^***a. Also, the MPO in the assay with MPO (LPS 10 mg/kg i.p. only) is listed as 102.4 ± 3.496^***a. The SOD in the assay with SOD (LPS 10 mg/kg i.p. only) is reported as 0.4713 ± 0.041^*a. The “CY450P2E1 Fold change” value with CY450P2E1 (LPS 10 mg/kg i.p. only) was 12.68 ± 0.2038^***a Fold change. In addition, the MDA in the assay with MDA (LPS 10 mg/kg i.p. only) was 42.15 ± 0.800^***a. Moreover, in the assay with TGF-β1 (LPS 10 mg/kg i.p. only), the “TGF-β1 immunohistochemical expression in lung” value is “+ +”. Further, the IL-6 with IL-6 (LPS 10 mg/kg i.p. only) is listed as 126.1 ± 3.75^***a. Further, the GSH with GSH (LPS 10 mg/kg i.p. only) was 0.4737 ± 0.038^*a. Moreover, the Nf-ĸB with NF-κB p65 (LPS 10 mg/kg i.p. only) is given as 3.973 ± 0.014^***a. The “P38 MAPK Fold change” value in the assay on P38.MAPK14 (LPS 10 mg/kg i.p. only) was 9.682 ± 0.1741^***a Fold change.
